# Data: US20090111104A1, “Method for Monitoring Hydrolytic Activity” (Fluorotechnics Pty Limited, priority 2005, published 2009)
# How the values were obtained:
# BSA [1] = target: T1, BSA (Bos taurus, UniProt P02769); test: Real-time monitoring of chymotrypsin digestion of BSA using epicocconone; format: biochemical, bovine; conditions: bicine pH 7.8, 30° C., chymotrypsin 1:30
# T1 construct: purchased Sigma-Aldrich A3059
# Experimental: • 1. Chymotrypsin digestion was carried out in bicine buffer. • 2. BSA was prepared in 10 mg/mL in 50 mM bicine buffer. • 3. One hundred microliter of the BSA sample was used for chymotrypsin digestion.
# • 1. The BSA sample (100 μL) was reduced by adding 5 μL of DTT stock and heating (80° C.) for 10 min. • 2. The sample was alkylated by adding the iodoacetamide (4 μL) stock at room temperature for 45 min-1 hr. • 3. The remaining iodoacetamide of the sample was neutralized by adding DTT (20 μL) and incubating room temp for 45 min-1 hr.
# • 1. The reduced and denatured BSA sample from 2.2 was diluted 10-fold in 50 mM bicine buffer (25 μL+225 μL bicine buffer). BSA molar concentration was calculated to be approx. 6 μM. • 2. One hundred microliter of the sample (step 1) was prepared in duplicates and added to a microtiter plate. Controls included a bicine-based digestion buffer, a chymotrypsin sample only and an undigested BSA sample (no chymotrypsin). • 3. Epicocconone stock solution was diluted 100-fold in 50 mM bicine and 100 μL added to each well. The final concentration epicocconone was 12 μM. At this point in time, it required approximately 10 min to get appropriate FluoStar setting conditions. • 4. 2 μL of CaCl2 was added • 5. […] Fluorescence development was monitored in real time every 2 minutes up to 6 hours using FluoStar (Ex/Em=540/630−12). […]
# BSA [2] = target: T1, BSA; test: SDS-PAGE validation of BSA proteolysis in the presence of different fluorophores (Example 7); format: biochemical, bovine; conditions: after 120 minutes
# Text: The normalised data were used for Prism analysis for obtaining the rate constants. In each case, the protein with fluorophore (open squares) is fitted to a single phase exponential decay (Y=span*exp(−kX)+plateau) and the value for k used as the fixed value for k1 in a two phase exponential decay (Y=span1*exp(−k1X)+span2*exp(−k2X)+plateau) for the protein plus papain (open circles). Through this method it was possible to measure the rate constants for hydrolysis and predict the time point for complete hydrolysis. […] It can be seen from this figure that the bands associated with the protein have disappeared after 120 minutes and that only a faint band for residual papain or trypsin can be seen. In some cases there are also some larger peptide fragments remaining after digestion that are resistant to further hydrolysis.
# T1 sequence (P02769 25-607): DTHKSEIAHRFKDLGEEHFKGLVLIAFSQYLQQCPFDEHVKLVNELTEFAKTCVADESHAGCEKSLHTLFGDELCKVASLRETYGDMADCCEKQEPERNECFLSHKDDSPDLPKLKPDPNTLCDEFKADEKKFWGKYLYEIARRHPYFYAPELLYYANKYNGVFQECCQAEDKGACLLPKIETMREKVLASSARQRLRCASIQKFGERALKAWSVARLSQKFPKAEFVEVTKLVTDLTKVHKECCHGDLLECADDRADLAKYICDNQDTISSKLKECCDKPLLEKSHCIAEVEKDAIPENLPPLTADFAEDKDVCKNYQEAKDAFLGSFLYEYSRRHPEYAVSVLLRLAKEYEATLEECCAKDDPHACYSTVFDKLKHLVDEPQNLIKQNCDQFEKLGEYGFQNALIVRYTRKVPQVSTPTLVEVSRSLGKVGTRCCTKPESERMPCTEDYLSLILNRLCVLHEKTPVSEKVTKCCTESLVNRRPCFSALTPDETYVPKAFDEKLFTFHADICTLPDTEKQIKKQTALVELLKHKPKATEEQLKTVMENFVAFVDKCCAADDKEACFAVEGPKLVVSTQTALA
apparent first order rate constant (BSA [1]) [min⁻¹],digestion of BSA by SDS-PAGE (BSA [2]),Molecule
0.0447,,chymotrypsin
,complete digestion,"papain: Non-specific cysteine protease, Sigma-Aldrich P4762 (protein, UniProt P00784 134-345, looked up) Papain: IPEYVDWRQKGAVTPVKNQGSCGSCWAFSAVVTIEGIIKIRTGNLNEYSEQELLDCDRRSYGCNGGYPWSALQLVAQYGIHYRNTYPYEGVQRYCRSREKGPYAAKTDGVRQVQPYNEGALLYSIANQPVSVVLEAAGKDFQLYRGGIFVGPCGNKVDHAVAAVGYGPNYILIKNSWGTGWGENGYIRIKRGTGNSYGVCGLYTSSFYPVKN"
